Tested on: C. jejuni 81-176 in Caco-2 cells
Assay: Intracellular survival / in vitro clearance of C. jejuni in infected Caco-2 cells
Format: cell-based, Campylobacter jejuni
Settings: for minimal effective concentration: Campylobacter jejuni, C. jejuni 81–176 infected Caco-2 cells, compounds at 200, 100, 50, 25 μM for 24 h, read-out: In vitro Concentration (in vitro clearance ability); for Intracellular Campylobacter load (below detection limit): 50 μM, 24 h
Description: To test the effect of selected compounds on C. jejuni in vitro clearance, Caco-2 cells were infected with C. jejuni 81-176 strain and a 96 well intracellular survival assay was performed as described previously (Malde et al., [2014]; Pina-Mimbela et al., [2015]). Briefly, a mid-log phase C. jejuni 81–176 culture was pelleted by centrifuging at 9500 × g for 10 min and washed three times with Dulbecco Phosphate Buffer Saline (DPBS, Gibco) containing 1% (v/v) FBS and adjusted to the desired OD600. Approximately 1.4 × 10^5 Caco-2 cells/well were seeded in 100 μL of media containing varying concentration of compounds into each well of a 96 well plate and subsequently infected with C. jejuni at multiplicity of infection (MOI) 100 in duplicate wells. To determine clearance, Caco-2 cells were incubated with bacteria for 3 h and treated with gentamicin (150 μg/mL) and incubated for additional 2 h. Cells were washed three times with DPBS with no calcium or magnesium and incubated with 1 μL of diluted compounds (200, 100, 50, and 25 μM) for 24 h. Infected cells were washed twice with MEM, lysed with 0.1% (v/v) Triton-X 100. Subsequently, 100 μL of an aliquot from each well was 10-fold serially diluted in MEM and plated on MH agar in duplicate to determine CFUs. The appropriate controls included; (i) infected Caco-2 cell treated with kanamycin or chloramphenicol, (ii) infected Caco-2 cells treated with 1 μL of 100% Trition-X, (iii) infected Caco-2 treated with 1 μL of 100% DMSO. Two independent experiments were carried with duplicate treatments in each experiment and the average CFU value was used to plot the graph.
The in vitro clearance ability and cytotoxicity of compounds were analyzed using one-way analysis of variance with mean separation by a least significant difference test at 5% level of significance in GraphPad Prism version 6 software.

Row | Compound | minimal effective concentration [µM] | Intracellular Campylobacter clearing ability (25 μM (eight-fold dilution)) | Intracellular Campylobacter load (below detection limit) [bacteria/mL] | Intracellular C. jejuni clearance (in vitro effect) (infected Caco-2 cells, overall)
1 | O=S(=O)(Nc1cccc(C(F)(F)F)c1)c1ccc(Br)cc1 [Comp 1] | 200 |  |  | 
2 | Clc1ccc(N2CCN(Cc3ccsc3)CC2)cc1 [Comp 4] | > 200 |  |  | 
3 | Cc1ccc(N2CCN(C/C=C/c3ccccc3)CC2)cc1 [Comp 5] | > 200 |  |  | 
4 | O=c1c(Cl)c(Cl)cnn1-c1ccccc1Cl [Comp 7] | 25 | complete intracellular Campylobacter clearing ability | ≤ 10 | 
5 | Cc1c(C(C)NCc2cccc(OC3CCCC3)c2)cnn1-c1ccccc1 (centres unmarked) [Comp 10] | 50 |  | ≤ 10 | 
6 | COc1ccc(CNCc2ccc(Cl)s2)cc1OCC(O)CN1CCCC1 (centres unmarked) [Comp 12] | 100 |  |  | 
7 | CN(Cc1cccc2cnccc12)CC1CCCN(CCc2ccc(F)cc2)C1 (centres unmarked) [Comp 13] | > 200 |  |  | lacked in vitro effect
8 | CN(CC(O)COc1ccccc1CNC1(c2ccccc2)CC1)C1CCCCC1 (centres unmarked) [Comp 17] | > 200 |  |  | 
9 | CN(Cc1ccccc1)CC1CCCN(CCc2ccc(F)cc2)C1 (centres unmarked) [Comp 18] | 100 |  |  | 
10 | CC(=O)Nc1ccc(CN(C)CC2CCCN(CCc3cccc(C(F)(F)F)c3)C2)cc1 (centres unmarked) [Comp 22] | 100 |  |  | 

From paper PMC4821856, “Novel Anti-Campylobacter Compounds Identified Using High Throughput Screening of a Pre-selected Enriched Small Molecules Library” (Frontiers in Microbiology, 2016)
